Measured values published in a compilation of properties of binary mixtures (doi:10.1016/j.molliq.2014.10.017).

Experiment: xn = mol fraction of the nth substance listed
Conditions: 101 kPa

CC#N + CCCC[n+]1ccn(C)c1.N#C[S-]
x1 = 1
Conditions | speed of sound [m/s]
303.15 K | 1258.8
313.15 K | 1218.5

CCCC[n+]1ccn(C)c1.N#C[S-] + CC#N
speed of sound [m/s]
Conditions | 293.15 K | 298.15 K | 303.15 K | 308.15 K | 313.15 K
x2 = 0 | 1778.8 | 1767.2 | 1755.4 | 1743.7 | 1732.1
x2 = 0.0984 | 1764.8 | 1752.9 | 1740.8 | 1728.9 | 1717
x2 = 0.1936 | 1749.3 | – | 1724.7 | 1712.5 | 1700.3
x2 = 0.3061 | – | 1714.1 | 1701.4 | 1688.7 | 1676.1
x2 = 0.4068 | 1701.6 | 1688.5 | 1675.3 | 1662.1 | 1649
x2 = 0.4899 | – | 1662.5 | 1648.8 | 1635.2 | 1621.7
x2 = 0.5994 | 1633.3 | 1618.7 | 1604.2 | 1589.7 | 1575.4
x2 = 0.6925 | 1586.2 | 1571.2 | – | 1540.8 | 1525.7
x2 = 0.7988 | – | 1498.6 | – | 1465.7 | 1449.4
x2 = 0.8971 | 1426.5 | 1408.9 | 1391 | 1373.1 | 1355.2
x2 = 0.9465 | 1372.3 | 1353.6 | 1334.8 | 1316 | 1297.2

CC#N + CCOS(=O)(=O)[O-].CC[n+]1ccn(C)c1
x1 = 1
Conditions | speed of sound [m/s]
293.15 K | 1298.8
298.15 K | 1279
303.15 K | 1258.8
308.15 K | 1238.6
313.15 K | 1218.5

CCOS(=O)(=O)[O-].CC[n+]1ccn(C)c1 + CC#N
speed of sound [m/s]
Conditions | 293.15 K | 298.15 K | 303.15 K | 308.15 K | 313.15 K
x2 = 0 | 1693.1 | 1680.8 | 1668.5 | – | 1644.4
x2 = 0.0934 | – | 1670.3 | – | – | 1633.5
x2 = 0.1936 | 1667 | 1654.5 | 1641.9 | 1629.3 | 1616.8
x2 = 0.2906 | 1649.5 | 1639.7 | 1623.8 | 1610.9 | 1598.1
x2 = 0.397 | 1626.4 | 1613.3 | 1599.9 | 1586.6 | 1573.5
x2 = 0.4967 | 1592.4 | 1578.7 | 1564.7 | 1550.8 | 1537
x2 = 0.5938 | – | 1552.3 | – | 1523.5 | –
x2 = 0.7001 | – | – | – | 1474.1 | 1458.9
x2 = 0.7953 | 1464.6 | 1448.5 | 1432.3 | 1416 | 1399.8
x2 = 0.8951 | – | 1373.4 | – | 1337.9 | 1320.2
x2 = 0.9516 | 1343.4 | 1324.8 | – | 1287.1 | 1268.3
